The values that follow come from article PMC7072245, “Macromolecular Crowding Increases the Affinity of the PHD of ING4 for the Histone H3K4me3 Mark” (Biomolecules, 2020).

In assay [1] the target is T1, PHD of ING4 (Homo sapiens, UniProt Q9UNL4).
T1 construct: we did the titration by NMR on a sample of 10 µM PHD of ING4
Nature of the assay: NMR titration of ING4-PHD with histone H3 peptides (CSP of W237 amide, 1H-15N HSQC). The class given is binding.
Description: These contained 50 or 10 µM uniformly -^15N enriched PHD in 20 mM sodium phosphate pH 6.5, 50 mM NaCl, 1 mM perdeuterated dithiotreitol, 5% (v/v) ^2H2O, and 0.01% (w/v) NaN3, plus different concentrations of Ficoll 70. […] Thus, the NMR titrations were completed in less than 24 h. NMR spectra were recorded at 25 °C on a BRUKER Avance III 800 spectrometer equipped with a TCI cryogenically cooled probe. At a concentration of 50 µM PHD, ^1H-^15N Heteronuclear Single Quantum Coherence (HSQC) spectra could be recorded in about 2 h with sufficient quality to measure the chemicals shift perturbations on peptide addition. At 10 µM PHD concentration, HSQC were recorded with only 16 t1 points and a ^15N spectral width of 10 ppm. […] In this way, the full titration of ING4-PHD with the histone peptide could be measured in less than 24 h.
Next, we measured the affinity of the binding in presence of Ficoll, by means of a NMR titration of the PHD with H3K4me3 peptide but in presence of 15% Ficoll (Figure 2). For binding analysis, we used the backbone amide signal of amino acid W237 because it experiences a large CSP upon peptide binding and is well isolated in a region of the spectrum with few other signals. […] This makes it necessary to reduce the protein concentration of the experiment.
On the other hand, the presence of 15% Ficoll 70 lowered the signal to noise ratio of the NMR experiment as signals got broader due to the increased viscosity of sample. So, we had to decrease the protein concentration of the experiment but not so much as to lose the signals in the noise. […] In these conditions, we could record ^1H-^15N HSQC experiments in 2 h and complete the titration in less than 1 day.
Once we got the optimum conditions, we did the titration by NMR on a sample of 10 µM PHD of ING4 in the presence of increasing amounts of H3K4me3 peptide (Figure 3).
Titrations at different percentages of Ficoll (0, 5, and 10 %) were done by NMR in a same manner as the titration at 15% Ficoll.

In assay [2] the target is T2, Plant Homeodomain (PHD) of ING4 (uniformly 15N enriched (NMR samples)).
T2 chain: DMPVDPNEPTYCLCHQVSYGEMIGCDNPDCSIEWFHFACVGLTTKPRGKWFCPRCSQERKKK
Description: NMR titration; 10 µM 15N PHD titrated with peptide, 15% Ficoll 70; 20 mM sodium phosphate pH 6.5, 50 mM NaCl, 1 mM DTT, 25 °C; CSP of W237 amide in 1H-15N HSQC, single site fit. Conditions: both partners purified.

For assay [3], the target named is T2, Plant Homeodomain (PHD) of ING4. Description: NMR titration; PHD titrated with peptide, 0% Ficoll 70; 20 mM sodium phosphate pH 6.5, 50 mM NaCl, 1 mM DTT, 25 °C; CSP of W237 amide. The settings on record: both partners purified.

Like-named read-outs stand apart in the source and are kept apart here. Where no end group is shown, it is not given here. [ ]: non-standard residue; d: D form. Lys(Me3) = C[N+](C)(C)CCCC[C@H](N)C(=O)O; Lys(Me2) = CN(C)CCCC[C@H](N)C(=O)O

As to `C[C@H](N)C(=O)N[C@@H](CCCNC(=N)N)C(=O)N[C@H](C(=O)N[C@@H](CCCCN(C)C)C(=O)N[C@@H](CCC(N)=O)C(=O)N[C@H](C(=O)N[C@@H](C)C(=O)N[C@@H](CCCNC(=N)N)C(=O)N[C@@H](CCCCN)C(=O)N[C@@H](CO)C(=O)N[C@H](C(=O)NCC(=O)NCC(=O)N[C@@H](CCCCN)C(=O)N[C@@H](C)C(=O)N[C@@H](Cc1ccc(O)cc1)C(=O)O)[C@@H](C)O)[C@@H](C)O)[C@@H](C)O` [H3K4me2], in assay [1], the affinity, expressed as Kd, was 1400 ± 600 nM.

For the molecule `C[C@H](N)C(=O)N[C@@H](CCCNC(=N)N)C(=O)N[C@H](C(=O)N[C@@H](CCCC[N+](C)(C)C)C(=O)N[C@@H](CCC(N)=O)C(=O)N[C@H](C(=O)N[C@@H](C)C(=O)N[C@@H](CCCNC(=N)N)C(=O)N[C@@H](CCCCN)C(=O)N[C@@H](CO)C(=O)N[C@H](C(=O)NCC(=O)NCC(=O)N[C@@H](CCCCN)C(=O)N[C@@H](C)C(=O)N[C@@H](Cc1ccc(O)cc1)C(=O)O)[C@@H](C)O)[C@@H](C)O)[C@@H](C)O` [H3K4me3], the dissociation constant (Kd) came to 400 ± 300 nM in assay [1] and 3900 ± 700 nM in assay [1] (absence of Ficoll (0%), NMR, 20 mM sodium phosphate pH 6.5, 50 mM NaCl, 25 °C, read-out: KD). `CNCCCC[C@H](NC(=O)[C@@H](NC(=O)[C@H](CCCNC(=N)N)NC(=O)[C@H](C)N)[C@@H](C)O)C(=O)N[C@@H](CCC(N)=O)C(=O)N[C@H](C(=O)N[C@@H](C)C(=O)N[C@@H](CCCNC(=N)N)C(=O)N[C@@H](CCCCN)C(=O)N[C@@H](CO)C(=O)N[C@H](C(=O)NCC(=O)NCC(=O)N[C@@H](CCCCN)C(=O)N[C@@H](C)C(=O)N[C@@H](Cc1ccc(O)cc1)C(=O)O)[C@@H](C)O)[C@@H](C)O` [H3K4me1] returned a Kd in assay [1] of 12000 ± 4000 nM.

B1: histone H3 peptide (residues 1-15 plus C-terminal Tyr) dimethylated at lysine 4 (peptide)
peptide: ART[Lys(Me2)]QTARKSTGGKAY
notes: histone H3 N-terminal tail, residues 1-15; extra Tyr residue at the C-terminus for concentration measurement by UV absorbance; also called H3K4me2
Turning to B1, the Kd in assay [2] stood at 1400 ± 600 nM.

B2: histone H3 peptide (residues 1-15 plus C-terminal Tyr) trimethylated at lysine 4 (peptide)
peptide: ART[Lys(Me3)]QTARKSTGGKAY
notes: histone H3 N-terminal tail, residues 1-15; extra Tyr residue at the C-terminus for concentration measurement by UV absorbance; also called H3K4me3; H3K4me3 peptide
Take B2: the equilibrium dissociation constant (Kd) in assay [2] stood at 400 ± 300 nM; in assay [3], 3900 ± 700 nM.

B3: histone H3 peptide (residues 1-15 plus C-terminal Tyr), unmethylated at lysine 4 (peptide)
peptide: ARTKQTARKSTGGKAY
notes: histone H3 N-terminal tail, residues 1-15; extra Tyr residue at the C-terminus for concentration measurement by UV absorbance; also called H3K4me0; unmethylated histone H3 tail
Turning to B3, the Kd in assay [2] amounted to 100000 ± 10000 nM.
